ChEMBL document CHEMBL6134905, “Double Swords in One: Novel Selective PI3K/110β PROTAC Degraders for the Treatment of Multidrug-Resistant Cancer by Activating ERS and Inhibiting P-gp” (J Med Chem, 2025)
Calls of active or inactive are those of the source. The calls are words filed in the database; no cut-off is given here.

Columns and labels:
[1] = target: T1, von Hippel-Lindau disease tumor suppressor/Phosphatidylinositol 4,5-bisphosphate 3-kinase catalytic subunit beta isoform (Homo sapiens, UniProt P42338+P40337); assay: PROTAC activity at PI3K-p110beta/VHL in human A549/DDP cells assessed as reduction in PI3K-p110beta level incubated for 12 to 36 hrs hrs by Western blot analysis; type: cell-based; settings: time 12-36 hrs
Target sequence in this assay (P40337 whole entry, looked up, canonical isoform): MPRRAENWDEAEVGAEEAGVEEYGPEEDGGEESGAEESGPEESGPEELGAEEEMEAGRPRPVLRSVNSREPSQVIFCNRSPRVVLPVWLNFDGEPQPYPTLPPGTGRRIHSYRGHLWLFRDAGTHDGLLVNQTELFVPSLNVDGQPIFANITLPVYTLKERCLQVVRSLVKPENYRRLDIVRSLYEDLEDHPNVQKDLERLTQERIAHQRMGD
Target sequence in this assay (P42338 whole entry, looked up, canonical isoform): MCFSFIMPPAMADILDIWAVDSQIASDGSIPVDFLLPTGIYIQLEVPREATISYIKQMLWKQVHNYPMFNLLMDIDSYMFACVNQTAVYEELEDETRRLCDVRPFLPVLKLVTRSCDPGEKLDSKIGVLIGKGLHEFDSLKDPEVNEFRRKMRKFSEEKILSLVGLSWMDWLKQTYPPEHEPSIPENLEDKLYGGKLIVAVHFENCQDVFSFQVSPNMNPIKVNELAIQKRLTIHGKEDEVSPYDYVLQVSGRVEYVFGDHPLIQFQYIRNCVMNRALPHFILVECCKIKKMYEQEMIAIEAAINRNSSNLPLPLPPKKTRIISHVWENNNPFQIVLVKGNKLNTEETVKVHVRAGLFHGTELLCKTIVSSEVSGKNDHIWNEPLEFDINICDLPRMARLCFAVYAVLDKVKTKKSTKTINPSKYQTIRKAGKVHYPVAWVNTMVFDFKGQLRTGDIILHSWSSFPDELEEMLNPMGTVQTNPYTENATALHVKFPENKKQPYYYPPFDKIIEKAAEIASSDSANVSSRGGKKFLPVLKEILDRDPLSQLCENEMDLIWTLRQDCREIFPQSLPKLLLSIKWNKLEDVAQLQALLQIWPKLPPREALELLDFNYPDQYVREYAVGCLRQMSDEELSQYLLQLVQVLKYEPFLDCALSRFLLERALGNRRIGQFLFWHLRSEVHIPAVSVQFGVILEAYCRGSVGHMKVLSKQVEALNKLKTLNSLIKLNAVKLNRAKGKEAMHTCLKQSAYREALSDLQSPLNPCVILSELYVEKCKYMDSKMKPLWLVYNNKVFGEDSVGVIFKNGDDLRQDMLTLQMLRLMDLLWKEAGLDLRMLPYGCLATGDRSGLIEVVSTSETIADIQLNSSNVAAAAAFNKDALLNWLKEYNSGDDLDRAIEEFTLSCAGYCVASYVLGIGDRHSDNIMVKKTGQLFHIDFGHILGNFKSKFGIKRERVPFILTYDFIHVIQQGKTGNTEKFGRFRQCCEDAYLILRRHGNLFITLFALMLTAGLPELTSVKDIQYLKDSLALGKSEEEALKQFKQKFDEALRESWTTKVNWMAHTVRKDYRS

[2] = target: T1, von Hippel-Lindau disease tumor suppressor/Phosphatidylinositol 4,5-bisphosphate 3-kinase catalytic subunit beta isoform; assay: PROTAC activity at PI3K-p110beta/VHL in human MCF7/ADM cells assessed as reduction in PI3K-p110beta level incubated for 24 hrs by Western blot analysis; type: cell-based; settings: dose 0.04-50 µM
Target sequence in this assay (P40337 whole entry, looked up, canonical isoform): as the sequence (P40337 whole entry, looked up, canonical isoform) above
Target sequence in this assay (P42338 whole entry, looked up, canonical isoform): as the sequence (P42338 whole entry, looked up, canonical isoform) above

[3] = Toxicity in BALB/c mouse xenografted with human MCF7/ADM cells assessed as tumor damage at 50 mg/kg, ip by H and E staining based analysis; type: organism-based; settings: in vivo
[4] = system: A549; assay: Antitumor activity against human A549 cells assessed as cell viability incubated for 24 hrs by MTT assay; type: functional, cell-based; settings: A549, 24 h
[5] = system: MCF7/ADM; assay: Induction of apoptosis in human MCF7/ADM cells assessed as decrease in bax expression at 12.5 uM incubated for 24 hrs by Western blot analysis; type: functional, cell-based
[6] = target: T2, von Hippel-Lindau disease tumor suppressor/Phosphatidylinositol 4,5-bisphosphate 3-kinase catalytic subunit alpha isoform (Homo sapiens, UniProt P42336+P40337); assay: PROTAC activity at PI3K-p110alpha/VHL in human A549/DDP cells assessed as reduction in PI3K-p110alpha level incubated for 24 hrs by Western blot analysis; type: cell-based; settings: dose 0.04-50 µM
Target sequence in this assay (P40337 whole entry, looked up, canonical isoform): as the sequence (P40337 whole entry, looked up, canonical isoform) above
Target sequence in this assay (P42336 whole entry, looked up, canonical isoform): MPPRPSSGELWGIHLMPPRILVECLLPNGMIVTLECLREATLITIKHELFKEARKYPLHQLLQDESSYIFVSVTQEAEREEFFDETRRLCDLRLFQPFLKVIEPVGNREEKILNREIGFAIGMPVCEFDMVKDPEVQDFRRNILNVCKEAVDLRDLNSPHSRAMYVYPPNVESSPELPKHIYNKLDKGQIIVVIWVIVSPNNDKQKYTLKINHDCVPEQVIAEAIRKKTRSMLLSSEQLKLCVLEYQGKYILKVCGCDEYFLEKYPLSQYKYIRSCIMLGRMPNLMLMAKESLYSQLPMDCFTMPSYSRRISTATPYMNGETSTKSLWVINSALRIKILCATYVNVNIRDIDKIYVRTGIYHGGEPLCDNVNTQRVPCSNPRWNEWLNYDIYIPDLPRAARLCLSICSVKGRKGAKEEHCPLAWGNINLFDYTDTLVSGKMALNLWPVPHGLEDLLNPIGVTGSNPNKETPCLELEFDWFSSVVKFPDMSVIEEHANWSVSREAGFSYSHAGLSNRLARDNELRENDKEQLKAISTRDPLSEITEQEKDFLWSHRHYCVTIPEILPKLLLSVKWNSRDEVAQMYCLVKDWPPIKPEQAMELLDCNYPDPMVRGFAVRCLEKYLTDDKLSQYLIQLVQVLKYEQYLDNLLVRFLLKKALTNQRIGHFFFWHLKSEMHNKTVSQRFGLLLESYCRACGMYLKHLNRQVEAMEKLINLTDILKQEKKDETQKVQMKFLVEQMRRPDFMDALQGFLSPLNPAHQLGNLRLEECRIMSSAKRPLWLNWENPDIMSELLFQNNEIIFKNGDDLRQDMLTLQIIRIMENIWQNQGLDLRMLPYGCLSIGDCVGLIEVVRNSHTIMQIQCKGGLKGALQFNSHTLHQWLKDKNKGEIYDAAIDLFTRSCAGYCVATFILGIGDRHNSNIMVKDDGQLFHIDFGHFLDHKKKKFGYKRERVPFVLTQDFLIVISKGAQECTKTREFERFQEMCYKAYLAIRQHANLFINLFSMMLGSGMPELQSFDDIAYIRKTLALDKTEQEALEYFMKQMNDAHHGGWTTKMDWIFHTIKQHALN

[7] = Toxicity in BALB/c mouse xenografted with human MCF7/ADM cells assessed as change in platelet count at 50 mg/kg, ip; type: organism-based; settings: in vivo
[8] = system: A549/CDDP; assay: Upregulation of ATF4 expression in human A549/DDP cells at 0.25 to 25 uM incubated for 24 hrs by Western blot analysis; type: functional, cell-based; settings: dose 0.25-25 µM
[9] = system: MCF7/ADM; assay: Antitumor activity against human MCF7/ADM cells xenografted in BALB/c mouse assessed as increase in pIRE1 expression in tumor at 50 mg/kg, ip by Western blot analysis; type: functional, organism-based
[10] = target: ATP-dependent translocase ABCB1 (Homo sapiens, UniProt P08183); assay: Inhibition of P-gp in human MCF7/ADM cells assessed as increase in intracellular Rh123 accumulation at 6.25 to 25 uM incubated for 24 hrs by flow cytometry analysis; type: cell-based; settings: dose 6.25-25 µM
Sequence of ATP-dependent translocase ABCB1 (P08183 whole entry): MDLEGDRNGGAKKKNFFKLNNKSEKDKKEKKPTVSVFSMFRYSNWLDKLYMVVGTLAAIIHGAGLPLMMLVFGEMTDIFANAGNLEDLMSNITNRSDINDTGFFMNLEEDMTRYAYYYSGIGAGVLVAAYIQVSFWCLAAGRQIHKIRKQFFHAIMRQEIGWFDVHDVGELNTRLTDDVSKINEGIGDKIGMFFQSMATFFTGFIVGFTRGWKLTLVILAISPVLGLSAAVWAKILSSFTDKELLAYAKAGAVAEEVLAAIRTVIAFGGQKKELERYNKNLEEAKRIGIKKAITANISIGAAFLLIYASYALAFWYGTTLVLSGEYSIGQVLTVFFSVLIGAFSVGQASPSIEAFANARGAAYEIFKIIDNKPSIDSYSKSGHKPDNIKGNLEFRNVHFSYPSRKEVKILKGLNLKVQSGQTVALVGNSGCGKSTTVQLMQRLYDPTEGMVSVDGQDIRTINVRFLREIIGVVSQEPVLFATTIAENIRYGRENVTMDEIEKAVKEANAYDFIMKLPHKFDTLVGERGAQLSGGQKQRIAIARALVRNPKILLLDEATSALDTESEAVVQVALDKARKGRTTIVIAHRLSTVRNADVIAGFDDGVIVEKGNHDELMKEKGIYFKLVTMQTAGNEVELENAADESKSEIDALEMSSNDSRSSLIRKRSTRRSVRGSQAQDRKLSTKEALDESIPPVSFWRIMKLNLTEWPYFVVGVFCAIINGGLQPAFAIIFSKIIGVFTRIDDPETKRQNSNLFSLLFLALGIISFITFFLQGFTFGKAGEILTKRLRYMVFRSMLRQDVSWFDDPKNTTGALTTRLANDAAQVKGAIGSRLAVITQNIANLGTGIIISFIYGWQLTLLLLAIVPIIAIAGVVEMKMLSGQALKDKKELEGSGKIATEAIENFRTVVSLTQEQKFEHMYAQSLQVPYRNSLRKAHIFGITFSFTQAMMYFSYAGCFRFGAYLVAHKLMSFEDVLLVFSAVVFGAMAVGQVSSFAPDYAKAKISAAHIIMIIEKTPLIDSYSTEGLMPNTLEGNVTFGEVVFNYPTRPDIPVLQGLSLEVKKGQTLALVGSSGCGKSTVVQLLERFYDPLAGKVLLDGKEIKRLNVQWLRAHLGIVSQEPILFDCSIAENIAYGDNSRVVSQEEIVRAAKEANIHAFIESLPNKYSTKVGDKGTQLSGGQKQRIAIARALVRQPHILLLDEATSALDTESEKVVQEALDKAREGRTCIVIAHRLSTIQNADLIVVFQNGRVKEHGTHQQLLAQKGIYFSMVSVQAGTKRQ

[11] = system: A549/CDDP; assay: Induction of apoptosis in human A549/DDP cells assessed as decrease in bcl-2 expression at 12.5 uM incubated for 24 hrs by Western blot analysis; type: functional, cell-based
[12] = Toxicity in BALB/c mouse xenografted with human MCF7/ADM cells assessed as body weight loss at 50 mg/kg, ip; type: organism-based; settings: in vivo
[13] = system: A549/CDDP; assay: Activation of unfolded protein response in human A549/DDP cells at 25 uM incubated for 24 hrs by PROTEOSTATR aggresome dye based fluorescent microscopy; type: functional, cell-based
[14] = system: A549/CDDP; assay: Induction of apoptosis in human A549/DDP cells assessed as increase in cleaved caspase-8 expression at 12.5 uM incubated for 24 hrs by Western blot analysis; type: functional, cell-based
[15] = target: T1, von Hippel-Lindau disease tumor suppressor/Phosphatidylinositol 4,5-bisphosphate 3-kinase catalytic subunit beta isoform; assay: PROTAC activity at PI3K-p110beta/VHL in human MCF7/ADM cells assessed as reduction in PI3K-p110beta level at 25 uM incubated for 24 hrs by Western blot analysis relative to control; type: cell-based; parameters: scale not given: the % may be the effect or the level left
Target sequence in this assay (P40337 whole entry, looked up, canonical isoform): as the sequence (P40337 whole entry, looked up, canonical isoform) above
Target sequence in this assay (P42338 whole entry, looked up, canonical isoform): as the sequence (P42338 whole entry, looked up, canonical isoform) above

[16] = Induction of apoptosis in human MCF7/ADM cells at 25 uM incubated for 24 hrs by Annexin V-FITC/PI staining based flow cytometry analysis (reference value: 5.20%); type: functional
[17] = target: T1, von Hippel-Lindau disease tumor suppressor/Phosphatidylinositol 4,5-bisphosphate 3-kinase catalytic subunit beta isoform; assay: PROTAC activity at PI3K-p110beta/VHL in human A549/DDP cells assessed as induction of PI3K-p110beta degradation at 25 uM measured for 24 hrs in presence of TGX221 by Western blot analysis; type: cell-based
Target sequence in this assay (P40337 whole entry, looked up, canonical isoform): as the sequence (P40337 whole entry, looked up, canonical isoform) above
Target sequence in this assay (P42338 whole entry, looked up, canonical isoform): as the sequence (P42338 whole entry, looked up, canonical isoform) above

[18] = Antitumor activity against human MCF7/ADM cells assessed as cell viability incubated for 24 hrs by MTT assay; type: functional, cell-based
[19] = target: T1, von Hippel-Lindau disease tumor suppressor/Phosphatidylinositol 4,5-bisphosphate 3-kinase catalytic subunit beta isoform; assay: PROTAC activity at PI3K-p110beta/VHL in human A549/DDP cells assessed as induction of PI3K-p110beta degradation at 25 uM measured for 24 hrs in presence of MG132 by Western blot analysis; type: cell-based
Target sequence in this assay (P40337 whole entry, looked up, canonical isoform): as the sequence (P40337 whole entry, looked up, canonical isoform) above
Target sequence in this assay (P42338 whole entry, looked up, canonical isoform): as the sequence (P42338 whole entry, looked up, canonical isoform) above

[20] = system: MCF7/ADM; assay: Antitumor activity against human MCF7/ADM cells xenografted in BALB/c mouse assessed as increase in CHOP expression in tumor at 50 mg/kg, ip by Western blot analysis; type: functional, organism-based
[21] = Induction of apoptosis in human MCF7/ADM cells at 6.25 uM incubated for 24 hrs by Annexin V-FITC/PI staining based flow cytometry analysis (reference value: 5.20%); type: functional
[22] = system: A549/CDDP; assay: Induction of apoptosis in human A549/DDP cells assessed as increase in caspase-8 expression at 12.5 uM incubated for 24 hrs by Western blot analysis; type: functional, cell-based
[23] = Toxicity in BALB/c mouse xenografted with human MCF7/ADM cells assessed as change in ALT level at 50 mg/kg, ip; type: organism-based; settings: in vivo
[24] = system: MCF7/ADM; assay: Antitumor activity against human MCF7/ADM cells xenografted in BALB/c mouse assessed as decrease in bcl-2 expression in tumor at 50 mg/kg, ip by Western blot analysis; type: functional, organism-based
[25] = target: T1, von Hippel-Lindau disease tumor suppressor/Phosphatidylinositol 4,5-bisphosphate 3-kinase catalytic subunit beta isoform; assay: PROTAC activity at PI3K-p110beta/VHL in human A549/DDP cells assessed as induction of PI3K-p110beta degradation at 0.04 to 50 uM by Western blot analysis; type: cell-based; settings: dose 0.04-50 µM, time 24.0 hrs
Target sequence in this assay (P40337 whole entry, looked up, canonical isoform): as the sequence (P40337 whole entry, looked up, canonical isoform) above
Target sequence in this assay (P42338 whole entry, looked up, canonical isoform): as the sequence (P42338 whole entry, looked up, canonical isoform) above

[26] = system: MCF7/ADM; assay: Induction of apoptosis in human MCF7/ADM cells assessed as increase in caspase-8 expression at 12.5 uM incubated for 24 hrs by Western blot analysis; type: functional, cell-based
[27] = system: Mitochondrial membrane; assay: Induction of mitochondrial membrane potential loss in human A549/DDP cells assessed as increase in green fluorescence at 25 uM incubated for 48 hrs by JC-1 staining based flow cytometry
[28] = target: T1, von Hippel-Lindau disease tumor suppressor/Phosphatidylinositol 4,5-bisphosphate 3-kinase catalytic subunit beta isoform; assay: PROTAC activity at PI3K-p110beta/VHL in human A549/DDP cells assessed as reduction in PI3K-p110beta level at 25 uM measured for 24 hrs by Western blot analysis; type: cell-based
[29] = system: A549/CDDP; assay: Cytotoxicity against human A549/DDP cells at 100 uM incubated for 24 hrs; type: functional, cell-based
[30] = target: T1, von Hippel-Lindau disease tumor suppressor/Phosphatidylinositol 4,5-bisphosphate 3-kinase catalytic subunit beta isoform; assay: PROTAC activity at PI3K-p110beta/VHL in human MCF7/ADM cells assessed as induction of PI3K-p110beta degradation incubated for 24 hrs by Western blot analysis; type: cell-based
[31] = target: T2, von Hippel-Lindau disease tumor suppressor/Phosphatidylinositol 4,5-bisphosphate 3-kinase catalytic subunit alpha isoform; assay: PROTAC activity at PI3K-p110alpha/VHL in human A549/DDP cells assessed as reduction in PI3K-p110alpha mRNA level at 25 uM measured for 24 hrs by qRT-PCR analysis; type: cell-based
Target sequence in this assay (P40337 whole entry, looked up, canonical isoform): as the sequence (P40337 whole entry, looked up, canonical isoform) above
Target sequence in this assay (P42336 whole entry, looked up, canonical isoform): as the sequence (P42336 whole entry, looked up, canonical isoform) above

[32] = target: T2, von Hippel-Lindau disease tumor suppressor/Phosphatidylinositol 4,5-bisphosphate 3-kinase catalytic subunit alpha isoform; assay: PROTAC activity at PI3K-p110alpha/VHL in human MCF7/ADM cells assessed as induction of PI3K-p110alpha degradation incubated for 24 hrs by Western blot analysis; type: cell-based
[33] = target: T1, von Hippel-Lindau disease tumor suppressor/Phosphatidylinositol 4,5-bisphosphate 3-kinase catalytic subunit beta isoform; assay: PROTAC activity at PI3K-p110beta/VHL in human A549/DDP cells assessed as reduction in PI3K-p110beta mRNA level at 25 uM measured for 24 hrs by qRT-PCR analysis; type: cell-based

Row | Compound | Activity [1] | Activity [3] | IC50 [4] [µM] | Activity [5] | Activity [7] | Activity [8] | Activity [9] | inhibition (INH) [10] | Activity [11] | Activity [12] | Activity [13] | Activity [14] | Activity [17] | IC50 [18] [µM] | Activity [19] | Activity [20] | Activity [22] | Activity [23] | Activity [24] | Activity [25] | also measured
1 | Cc1cc(C(C)Nc2ccccc2C(=O)NCCOCCOCCC(=O)N[C@H](C(=O)N2C[C@H](O)C[C@H]2C(=O)NCc2ccc(-c3scnc3C)cc2)C(C)(C)C)c2nc(N3CCOCC3)cc(=O)n2c1 (stereo partly specified) | Active | Non-toxic | 75.3 | Active | Non-toxic | Active | Active | Active | Active | Non-toxic | Active | Active | inactive | 30.2 | Active | Active | Active | Non-toxic | Active | Time-dependent-effect | Activity [2]: Dose-dependent-effect; Activity [6]: Dose-dependent-effect; Activity [15]: 75%; Activity [16]: 26.66%; Activity [21]: 6.88%; Activity [26]: Active; Activity [27]: Active; Activity [28]: Active
2 | Cc1cc(C(C)Nc2ccccc2C(=O)NCCCCCCC(=O)N[C@H](C(=O)N2C[C@H](O)C[C@H]2C(=O)NCc2ccc(-c3scnc3C)cc2)C(C)(C)C)c2nc(N3CCOCC3)cc(=O)n2c1 (stereo partly specified) | Active | Non-toxic | 85.2 | Active | Non-toxic | Active | Active | Active | Active | Non-toxic | Active | Active | inactive | 38.7 | Active | Active | Active | Non-toxic | Active | Time-dependent-effect | Activity [29]: Active; DC50 [30]: 1.26 µM; Activity [31]: inactive; DC50 [32]: > 50 µM; Activity [33]: inactive; Activity [26]: Active; Activity [27]: Active; Activity [28]: Active
